# From patent US6740642B2, “Macrolides with antibacterial activity” (BAsilea Parmaceutica AG, priority 2000, dated 2004)
# Tests used:
# H. influenzae Rd KW20 = test: MIC, agar dilution, HTM medium; format: cell-based, Haemophilus influenzae; settings: Haemophilus influenzae, RDKW20, read-out: MIC
# From the text: (§1) The biological activities of compounds of the present invention against Haemophilus influenzae have been determined by standard agar dilution method using HTM medium (National Committee for Clinical Laboratory Standards. 1997. Methods for dilution antimicrobial susceptibility tests for bacteria that grow aerobically, 4th edition. Approved standard M7-A4. National Committee for Clinical Laboratory Standards, Wayne, Pa.).
# H. influenzae ATCC 9334 = test: MIC, agar dilution, HTM medium; format: cell-based, Haemophilus influenzae; settings: Haemophilus influenzae, ATCC9334, read-out: MIC
# From the text: as §1
# H. influenzae H36 ODL = test: MIC, agar dilution, HTM medium; format: cell-based, Haemophilus influenzae; settings: Haemophilus influenzae, H36ODL, read-out: MIC
# From the text: as §1
# H. influenzae H28 HEL = test: MIC, agar dilution, HTM medium; format: cell-based, Haemophilus influenzae; settings: Haemophilus influenzae, H28HEL, read-out: MIC
# From the text: as §1
# H. influenzae 23145 = test: MIC, agar dilution, HTM medium; format: cell-based, Haemophilus influenzae; settings: Haemophilus influenzae, read-out: MIC
# From the text: as §1
# H. influenzae QK 50 = test: MIC, agar dilution, HTM medium; format: cell-based, Haemophilus influenzae; settings: Haemophilus influenzae, QK50, read-out: MIC
# From the text: as §1
# H. influenzae 3640 = test: MIC, agar dilution, HTM medium; format: cell-based, Haemophilus influenzae; settings: Haemophilus influenzae, read-out: MIC
# From the text: as §1
# H. influenzae ATCC 49247 = test: MIC, agar dilution, HTM medium; format: cell-based, Haemophilus influenzae; settings: Haemophilus influenzae, ATCC49247, read-out: MIC
# From the text: as §1
# H. influenzae H13 LAH = test: MIC, agar dilution, HTM medium; format: cell-based, Haemophilus influenzae; settings: Haemophilus influenzae, H13LAH, read-out: MIC
# From the text: as §1
# H. influenzae 3201 = test: MIC, agar dilution, HTM medium; format: cell-based, Haemophilus influenzae; settings: Haemophilus influenzae, read-out: MIC
# From the text: as §1
# H. influenzae Christy = test: MIC, agar dilution, HTM medium; format: cell-based, Haemophilus influenzae; settings: Haemophilus influenzae, read-out: MIC
# From the text: as §1
# H. influenzae 4139 = test: MIC, agar dilution, HTM medium; format: cell-based, Haemophilus influenzae; settings: Haemophilus influenzae, read-out: MIC
# From the text: as §1
# H. influenzae 23369 = test: MIC, agar dilution, HTM medium; format: cell-based, Haemophilus influenzae; settings: Haemophilus influenzae, read-out: MIC
# From the text: as §1
# H. influenzae 11 = test: MIC, agar dilution, HTM medium; format: cell-based, Haemophilus influenzae; settings: Haemophilus influenzae, read-out: MIC
# From the text: as §1
# H. influenzae 12214 = test: MIC, agar dilution, HTM medium; format: cell-based, Haemophilus influenzae; settings: Haemophilus influenzae, read-out: MIC
# From the text: as §1
# H. influenzae 3457 = test: MIC, agar dilution, HTM medium; format: cell-based, Haemophilus influenzae; settings: Haemophilus influenzae, read-out: MIC
# From the text: as §1
# H. influenzae 2947 = test: MIC, agar dilution, HTM medium; format: cell-based, Haemophilus influenzae; settings: Haemophilus influenzae, read-out: MIC
# From the text: as §1
# H. influenzae 1 = test: MIC, agar dilution, HTM medium; format: cell-based, Haemophilus influenzae; settings: Haemophilus influenzae, read-out: MIC
# From the text: as §1
# H. influenzae H20 HDL = test: MIC, agar dilution, HTM medium; format: cell-based, Haemophilus influenzae; settings: Haemophilus influenzae, H20HDL, read-out: MIC
# From the text: as §1
# H. influenzae B 1501 = test: MIC, agar dilution, HTM medium; format: cell-based, Haemophilus influenzae; settings: Haemophilus influenzae, B1501, read-out: MIC
# From the text: as §1
# H. influenzae QK 12/87 = test: MIC, agar dilution, HTM medium; format: cell-based, Haemophilus influenzae; settings: Haemophilus influenzae, QK12/87, read-out: MIC
# From the text: as §1
# St. pneumoniae SL199T = test: MIC, standard microdilution; format: cell-based, Streptococcus pneumoniae; settings: Streptococcus pneumoniae, read-out: minimum inhibitory concentration (MIC)
# How it was run: (§2)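 Compounds are serially diluted and tested against aerobically growing bacteria in a microdilution format. The lowest inhibitory concentration is taken as MIC under the NCCLS protocol.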
# St. pneumoniae 1/4 = test: MIC, standard microdilution; format: cell-based, Streptococcus pneumoniae; settings: Streptococcus pneumoniae, read-out: minimum inhibitory concentration (MIC)
# How it was run: as §2
# St. pneumoniae 12288 = test: MIC, standard microdilution; format: cell-based, Streptococcus pneumoniae; settings: Streptococcus pneumoniae, read-out: minimum inhibitory concentration (MIC)
# How it was run: as §2
# St. pneumoniae 1/1 = test: MIC, standard microdilution; format: cell-based, Streptococcus pneumoniae; settings: Streptococcus pneumoniae, read-out: minimum inhibitory concentration (MIC)
# How it was run: as §2
# S. aureus ATCC29213 = test: MIC, standard microdilution; format: cell-based, Staphylococcus aureus; settings: Staphylococcus aureus, read-out: minimum inhibitory concentration (MIC)
# How it was run: as §2
# S. aureus 1086 = test: MIC, standard microdilution; format: cell-based, Staphylococcus aureus; settings: Staphylococcus aureus, read-out: minimum inhibitory concentration (MIC)
# How it was run: as §2
# S. aureus 745 = test: MIC, standard microdilution; format: cell-based, Staphylococcus aureus; settings: Staphylococcus aureus, read-out: minimum inhibitory concentration (MIC)
# How it was run: as §2
# [1] = tested on: P. aeruginosa ATCC27853 (+Ery. 32 μg/ml); test: MIC, standard microdilution; format: cell-based
# How it was run: as §2
# E. coli ATCC25922 = test: MIC, standard microdilution; format: cell-based; settings: Escherichia coli, read-out: minimum inhibitory concentration (MIC)
# How it was run: as §2
MIC (H. influenzae Rd KW20),MIC (H. influenzae ATCC 9334),MIC (H. influenzae H36 ODL),MIC (H. influenzae H28 HEL),MIC (H. influenzae 23145),MIC (H. influenzae QK 50),MIC (H. influenzae 3640),MIC (H. influenzae ATCC 49247),MIC (H. influenzae H13 LAH),MIC (H. influenzae 3201),MIC (H. influenzae Christy),MIC (H. influenzae 4139),MIC (H. influenzae 23369),MIC (H. influenzae 11),MIC (H. influenzae 12214),MIC (H. influenzae 3457),MIC (H. influenzae 2947),MIC (H. influenzae 1),MIC (H. influenzae H20 HDL),MIC (H. influenzae B 1501),SMILES,other results
8 µg/mL,8 µg/mL,16 µg/mL,4 µg/mL,8 µg/mL,8 µg/mL,4 µg/mL,8 µg/mL,8 µg/mL,16 µg/mL,8 µg/mL,4 µg/mL,16 µg/mL,16 µg/mL,8 µg/mL,1 µg/mL,16 µg/mL,8 µg/mL,4 µg/mL,8 µg/mL,"CC[C@H]1OC(=O)[C@H](C)[C@@H](O[C@H]2C[C@@](C)(OC)[C@@H](O)[C@H](C)O2)[C@H](C)[C@@H](O[C@@H]2O[C@H](C)C[C@H](N(C)C)[C@H]2O)[C@](C)(OC)C[C@@H](C)C(=O)[C@H](C)[C@@H](O)[C@]1(C)O [Clarithromycin (2), clarithromycin]",MIC (H. influenzae QK 12/87): 2 µg/mL; MIC (St. pneumoniae SL199T): 16 µg/mL; MIC (St. pneumoniae 1/4): 16 µg/mL; MIC (St. pneumoniae 12288): > 16 µg/mL; MIC (St. pneumoniae 1/1): ≤ 0.12 µg/mL; MIC (S. aureus ATCC29213): 0.25 µg/mL; MIC (S. aureus 1086): 16 µg/mL; MIC (S. aureus 745): > 16 µg/mL; minimum inhibitory concentration (MIC) [1]: >16 µg/mL; MIC (E. coli ATCC25922): > 16 µg/mL
4 µg/mL,4 µg/mL,4 µg/mL,2 µg/mL,4 µg/mL,4 µg/mL,2 µg/mL,4 µg/mL,4 µg/mL,4 µg/mL,4 µg/mL,1 µg/mL,4 µg/mL,4 µg/mL,4 µg/mL,0.5 µg/mL,4 µg/mL,4 µg/mL,2 µg/mL,4 µg/mL,"CC[C@H]1OC(=O)[C@H](C)[C@@H](O[C@H]2C[C@@](C)(OC)[C@@H](O)[C@H](C)O2)[C@H](C)[C@@H](O[C@@H]2O[C@H](C)C[C@H](N(C)C)[C@H]2O)[C@](C)(O)C[C@@H](C)C(=O)[C@H](C)[C@@H](O)[C@]1(C)O [Erythromycin (1), erythromycin A]",MIC (H. influenzae QK 12/87): 2 µg/mL; MIC (St. pneumoniae SL199T): > 32 µg/mL; MIC (St. pneumoniae 1/4): 32 µg/mL; MIC (St. pneumoniae 12288): > 32 µg/mL; MIC (St. pneumoniae 1/1): ≤ 0.12 µg/mL; MIC (S. aureus ATCC29213): 0.5 µg/mL; MIC (S. aureus 1086): > 32 µg/mL; MIC (S. aureus 745): > 64 µg/mL; minimum inhibitory concentration (MIC) [1]: >16 µg/mL; MIC (E. coli ATCC25922): > 16 µg/mL
2 µg/mL,2 µg/mL,2 µg/mL,1 µg/mL,2 µg/mL,2 µg/mL,1 µg/mL,2 µg/mL,2 µg/mL,2 µg/mL,2 µg/mL,0.5 µg/mL,4 µg/mL,2 µg/mL,2 µg/mL,0.5 µg/mL,2 µg/mL,2 µg/mL,1 µg/mL,1 µg/mL,"CC[C@H]1OC(=O)[C@H](C)[C@@H](O[C@H]2C[C@@](C)(OC)[C@@H](O)C(C)O2)[C@H](C)[C@@H](O[C@@H]2OC(C)C[C@H](N(C)C)[C@H]2O)[C@](C)(O)C[C@@H](C)CN(C)C(C)C(O)[C@]1(C)O (stereo partly drawn) [Azithromycin (3), azithromycin]",MIC (H. influenzae QK 12/87): 0.5 µg/mL
